Experimental data reported in patent publication US20080318970A1, “Treatment of Infectious Diseases” (priority 2004, published 2008).
Converted amounts (≈) assume the structure as drawn.

Assays:
[1] = test system: P. aeruginosa 432b; assay: Checkerboard combination study (FIC index); assay type: cell-based; details: isolate resistant (R)
Description: P. aeruginosa 432b. Clinical multidrug resistant isolate. Resistant to tetracycline, beta-lactams, fluoroquinolones, and aminoglycosides. Beta-lactamase producing, changes in Penicillin Binding Proteins and changes in Outer Membrane Proteins.
(§1) The synergistic effect was studied by checkerboard combination studies exposing cells to 0-64 μg/ml anti-infective agent in the absence or presence of trans-flupenthixol, cis-flupenthixol or trans-clopenthixol. Each experiment was repeated in tripleduplicate. MIC values represent the mean values of two separate experiments,
(§2) A log phase culture of bacteria was diluted with fresh pre-warmed medium and adjusted to a defined OD at 600 nm in order to give a final concentration of 1×10^4 bacteria/ml medium in each well. Each chemosensitising compound was added to the bacterial culture in the wells in two-fold dilutions in order to give final concentrations ranging from 0 to 8 μg/ml. Anti-infective agent was added to the bacterial culture in the wells in two-fold dilutions in order to give final concentrations ranging from 0 to 64 μg/ml Trays were incubated at 37° C. for 16 h. Wells were assessed visually for growth. The Fractional Inhibitory Concentration (FIC) was calculated for each anti-infective agent alone and in combination with trans-flupenthixol, cis-flupenthixol or trans-clopenthixol. The following formulae were used to calculate the FIC index:
(§3) FIC=FICchemosensitising compound+FICanti-infective agent
(§4) FICchemosensitising compound=(MICchemosensitising compound+anti-infective agent)/(MICchemosensitising compound)
(§5) FICanti-infective agent=(MICanti-infective agent+chemosensitising compound/(MICanti-Infective agent)
(§6) Synergy was defined as a FIC index of <0.5.

[2] = test system: E. faecalis F86; assay: Checkerboard combination study (FIC index); assay type: cell-based, Enterococcus faecalis; details: anti-infective agent Dicloxacillin; isolate susceptible (S)
Description: Enterococcus faecalis, F86. Susceptible clinical isolate. No development of resistance.
as §1, §2, §3, §4, §5, §6

[3] = test system: Enterococcus faecalis BG-029; assay: Mouse peritonitis model, bacterial counts in peritoneal fluid; assay type: in vivo, NMRI mice; details: neutropenic mice; subcutaneous; 6 h; ciprofloxacin 12.5 mg per mouse, trans-clopenthixol 5 mg per kg, alone or combined
Description: Female NMRI mice (age, approximately 6 to 8 weeks; weight, 30±2 g) were used for the mouse […] peritonitis model (as described below). Bacterial suspensions were prepared from fresh overnight cultures (made from frozen stock cultures) on 5% blood agar plates as described above. […] The size of the inoculum was determined by viability counting on 5% blood agar. Neutropenia was introduced by pretreating the mice with cyclophosphamide (6 mg daily for three days). […] Inoculated untreated control mice were included in all trials. […] After the mice were killed, peritoneal washes were performed by injecting 2 ml of sterile saline intraperitoneally, followed by massage of the abdomen and then opening of the peritoneum to collect the fluid.

[4] = test system: E. coli, LN 3164; assay: Effect of chemosensitising compounds on DR (DR ratio) with ciprofloxacin, microtiter assay; assay type: cell-based; details: MIC ciprofloxacin alone / MIC ciprofloxacin + chemosensitising compound at ¼ of its MIC; E. coli LN 3164
Description: The effects of the chemosensitising compounds on DR were studied by the microtiter assay described above by exposing cells to 0-64 μg/ml anti-infective drug in the absence or presence of chemosensitising compound. Each experiment was repeated in tripleduplicate. MIC values represent the mean values of two separate experiments.
A log phase culture of bacteria was diluted with fresh pre-warmed medium and adjusted to a defined OD at 600 nm in order to give a final concentration of 1×10^4 bacteria/ml medium in each well. […] Anti-infective agent was added to the bacterial culture in the wells in two-fold dilutions in order to give final concentrations ranging from 0 to 64 μg/ml. Trays were incubated at 37° C. for 16 h. The DR ratio was defined as the ratio between the MIC value for anti-infective agent alone divided by the MIC for the anti-infective agent in the presence of the chemosensitising compound. This ratio represents the increase in apparent potency of the anti-infective agent caused by the chemosensitising compound, and may be expressed as
DR ratio=(MICanti-infective agent)/(MICanti-infective agent+chemosensitising compound)

[5] = test system: Enterococcus faecalis BG-029; assay: MIC by microdilution test (NCCLS); assay type: cell-based; details: clinical isolate from human urine, resistant to ciprofloxacin
Description: A clinical isolate of Enterococcus faecalis BG-029 from human urine was used.
The MICs were determined by the microdilution test according to the NCCLS Guidelines.

[6] = test system: E. coli LN 3164; assay: Checkerboard combination study (FIC index); assay type: cell-based; details: MDR isolate
Description: E. coli, LN 3164. Acr AB-ToIC MDR in vitro-selected mutant. Resistant to tetracycline, beta-lactams, fluoroquinolones, chloramphenicol and aminoglycosides.
as §1, §2, §3, §4, §5, §6

[7] = test system: Fluconazole Resistant Candida albicans; assay: Checkerboard combination study on fungals, broth microdilution (NCCLS M27-A); assay type: cell-based; details: for FIC index: fluconazole with trans-clopenthixol
Description: The synergistic effect of Trans-clopenthixol was studied by checkerboard combination studies exposing cells to 0-256 μg/ml anti-infective agent in the absence or presence of trans-clopenthixol (0 to 8 μg/ml in two-fold dilutions). Each experiment was repeated in tripleduplicate. MIC values represent the mean values of two separate experiments.
Clinical Isolate of a Fluconazole Resistant Candida albicans from a Patient with candidemia.
The isolates were subcultured for 24 h on Sabouraud glucose agar before susceptibility testing.
Broth microdilution tests were performed according to NCCLS document M27-A (Ref: National Committee for Clinical Laboratory Standards. (1997). Reference Method for Broth Dilution Antifungal Susceptibility Testing of Yeasts: Approved Standard M27-A. NCCLS, Wayne, Pa.)
Microtitre plates were read spectrophotometrically at 530 nm, after mixing the wells by pipetting to resuspend yeast sediments.
The Fractional Inhibitory Concentration (FIC) was calculated for the anti-infective agent alone and in combination with trans-clopenthixol. The following formulae were used to calculate the FIC index:
as §3, §4
FICanti-infective agent=(MICanti-infective agent+chemosensitising compound/(MICanti-infective agent)
as §6

[8] = anti-infective agent Ciprofloxacin
[9] = anti-infective agent Gentamicin
[10] = anti-infective agent Piperacillin

Compound: OCCN1CCN(CC/C=C2\c3ccccc3Sc3ccc(Cl)cc32)CC1 [trans-clopenthixol]
- FIC index [1, 8]: 0.008
- FIC index [1, 9]: 0.032
- FIC index [1, 10]: 0.063
- FIC index [2]: 0.25
- bactericidal activity in mouse peritoneum (in words) [3]: did not affect the bacteria
- DR ratio [4]: 128
- MIC [5]: 6 µg/mL (≈ 15 µM)
- FIC index [6, 8]: 0.063
- FIC index [6, 9]: 0.063
- FIC index [6, 10]: 0.063
- MIC ([7]; agent alone): 32 µg/mL
- FIC index [7]: < 0.5
- FIC index ([7]; listed as Trans-clopenthixol): 0.16
- effective concentrations ([7]; in combination with an anti-fungal agent): ≤ 3 µg/mL
